# Laboratory results from patent US20250170141A1, “MRGPRX2 MODULATORS AND RELATED METHODS OF TREATMENT” (Escient Pharmaceuticals, Inc., priority 2023, published 2025).
# pIC50: −log10 of the molar value.
# Molecular target: T1, human MRGPRX2 (Homo sapiens, UniProt Q96LB1)
# T1 construct: expressed in transfected cells; host or cells: CHO cells, stably transfected (G418 and Hygromycin B selection)
# T1 sequence (Q96LB1 1-330): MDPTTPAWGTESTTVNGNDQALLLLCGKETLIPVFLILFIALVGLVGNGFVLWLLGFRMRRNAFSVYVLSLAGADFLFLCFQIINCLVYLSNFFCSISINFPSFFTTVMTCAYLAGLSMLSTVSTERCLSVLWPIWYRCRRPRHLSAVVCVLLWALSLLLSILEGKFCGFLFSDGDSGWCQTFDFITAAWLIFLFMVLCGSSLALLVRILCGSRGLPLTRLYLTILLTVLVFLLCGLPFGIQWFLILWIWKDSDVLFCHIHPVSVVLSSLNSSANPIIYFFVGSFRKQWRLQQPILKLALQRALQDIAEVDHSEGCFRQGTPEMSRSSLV
# Experiment: MRGPRX2 activity: IP-One Gq HTRF assay in CHO cells, antagonism versus 0.3 uM Cortistatin-14
# Assay type: cell-based
# Settings: versus 0.3 uM Cortistatin-14 agonist, CHO cells expressing human MRGPRX2, read-out: MRGPRX2 Antagonist Activity
# Protocol: CHO cells stably transfected to express human MRGPRX2 were maintained in an incubator at 37° C. with 5% CO2 and grown in F12 (HAM) media with 10% fetal bovine serum (FBS), 1% Glutamax, 1% penicillin/streptomycin, 800 μg/mL Geneticin (G418), and 300 μg/mL Hygromycin B.
# Cells were plated in a 384-well assay plate at 20,000 cells per well in 12 μL of Opti-MEM and kept in an incubator overnight. On the day of the assay, compounds solubilized at 10 mM in DMSO were added as a 10-point curve (30 uM final top concentration with 1:3 serial dilutions) using a Tecan D300E digital dispenser. Agonists were diluted in assay buffer (final concentrations of 5.7 mM Tris-HCl, 43 mM NaCl, 50 mM LiCl, pH=8) and 2 μL of the agonist Cortistatin-14 (CPC Scientific, catalog CORT-002) are added to each well. Final concentrations of agonists were 0.3 μM Cortistatin. Final concentrations of DMSO were kept consistent across the plate. Plates were incubated in the dark for 1 h at 37° C. and then for 1 h at room temperature. IP-1 standards and HTRF detection reagents were added according to the IP-One—Gq Kit purchased from Cisbio (part number 62IPAPEJ) and incubated in the dark for 1 h at room temperature. The plate was read on a Molecular Devices SpectraMax iD5 plate reader. The HTRF ratio was calculated from the raw data and graphed using GraphPad Prism to calculate an IC50 value for each compound.
# The activity ranges are denoted as follows: “+++++” denotes antagonist activity <100 nM; “++++” denotes antagonist activity between 100 and 500 nM; “+++” denotes activity between 501 and 1000 nM; “++” denotes activity between 1001 and 2500 nM; and “+” denotes activity >2500 nM.
row,Structure (SMILES),pIC50
1,"O=S1(=O)N=C(NCc2cccnc2F)Nc2c1cc(F)c(F)c2Cc1ccccc1Cl [Compound 4-7, 5-(2-chlorobenzyl)-6,7-difluoro-3-(((2-fluoropyridin-3-yl)methyl)amino)-4H-benzo[e][1,2,4]thiadiazine 1,1-dioxide]",5.60 to 6.00
2,"O=S1(=O)N=C(NCc2ccccc2F)Nc2c1cc(F)c(F)c2Cc1ccccc1Cl [Compound 4-6, 5-(2-chlorobenzyl)-6,7-difluoro-3-((2-fluorobenzyl)amino)-4H-benzo[e][1,2,4]thiadiazine 1,1-dioxide]",6.30 to 7.00
3,"O=S1(=O)N=C(NCc2ccccc2F)Nc2c1ccc(F)c2Cc1ccccc1Cl [Compound 4-4, 5-(2-chlorobenzyl)-6-fluoro-3-((2-fluorobenzyl)amino)-4H-benzo[e][1,2,4]thiadiazine 1,1-dioxide]",6.30 to 7.00
4,"CC(C)(F)CNC1=NS(=O)(=O)c2cccc(Oc3ccccc3Cl)c2N1 [Compound 1-244, 5-(2-chlorophenoxy)-3-((2-fluoro-2-methylpropyl)amino)-4H-benzo[e][1,2,4]thiadiazine 1,1-dioxide]",5.60 to 6.00
5,"O=S1(=O)N=C(NCc2ncccc2F)Nc2c(Oc3ccccc3Cl)c(F)cc(Cl)c21 [Compound 1-41, 8-chloro-5-(2-chlorophenoxy)-6-fluoro-3-(((3-fluoropyridin-2-yl)methyl)amino)-4H-benzo[e][1,2,4]thiadiazine 1,1-dioxide]",6.30 to 7.00
6,"O=S1(=O)N=C(NCc2ncccc2F)Nc2c1ccc(F)c2Oc1c(F)cccc1F [Compound 1-33, 5-(2,6-difluorophenoxy)-6-fluoro-3-(((3-fluoropyridin-2-yl)methyl)amino)-4H-benzo[e][1,2,4]thiadiazine 1,1-dioxide]",6.00 to 6.30
7,"O=S1(=O)N=C(NCc2ncccc2F)Nc2c1cc(Cl)c(F)c2Oc1ccccc1Cl [Compound 1-47, 7-chloro-5-(2-chlorophenoxy)-6-fluoro-3-(((3-fluoropyridin-2-yl)methyl)amino)-4H-benzo[e][1,2,4]thiadiazine 1,1-dioxide]",6.00 to 6.30
8,"O=S1(=O)N=C(NCc2ncccc2F)Nc2c1cc(F)c(F)c2Cc1ccccc1Cl [Compound 4-5, 5-(2-chlorobenzyl)-6,7-difluoro-3-(((3-fluoropyridin-2-yl)methyl)amino)-4H-benzo[e][1,2,4]thiadiazine 1,1-dioxide]",6.30 to 7.00
9,"O=S1(=O)N=C(NCc2ncccc2F)Nc2c1ccc(F)c2Oc1c(F)cccc1Cl [Compound 1-17, 5-(2-chloro-6-fluorophenoxy)-6-fluoro-3-(((3-fluoropyridin-2-yl)methyl)amino)-4H-benzo[e][1,2,4]thiadiazine 1,1-dioxide]",6.30 to 7.00
10,"O=S1(=O)N=C(NCc2ncccc2F)Nc2c1ccc(F)c2Oc1cc(Cl)ccc1Cl [Compound 1-38, 5-(2,5-dichlorophenoxy)-6-fluoro-3-(((3-fluoropyridin-2-yl)methyl)amino)-4H-benzo[e][1,2,4]thiadiazine 1,1-dioxide]",> 7.00
11,"COc1cccc(CNC2=NS(=O)(=O)c3ccc(F)c(Oc4ccccc4Cl)c3N2)c1 [Compound 1-3, 5-(2-chlorophenoxy)-6-fluoro-3-((3-methoxybenzyl)amino)-4H-benzo[e][1,2,4]thiadiazine 1,1-dioxide]",6.30 to 7.00

# More lines, now with the values ahead:
row,pIC50,Structure (SMILES)
1,> 7.00,"CCC(c1ccccc1F)c1cccc2c1NC(NCc1ncccc1F)=NS2(=O)=O (centres unmarked) [Compound 21-1, 5-(1-(2-fluorophenyl)propyl)-3-(((3-fluoropyridin-2-yl)methyl)amino)-4H-benzo[e][1,2,4]thiadiazine 1,1-dioxide]"
2,> 7.00,"Cc1cccc(Cc2cccc3c2NC(NCc2ccccc2F)=NS3(=O)=O)c1 [Compound 6-10, 3-((2-fluorobenzyl)amino)-5-(3-methylbenzyl)-4H-benzo[e][1,2,4]thiadiazine 1,1-dioxide]"
3,> 7.00,"CC(c1ccc(F)cc1F)c1c(F)ccc2c1NC(NCc1cccc(F)c1)=NS2(=O)=O (centres unmarked) [Compound 22-25, 5-(1-(2,4-difluorophenyl)ethyl)-6-fluoro-3-((3-fluorobenzyl)amino)-4H-benzo[e][1,2,4]thiadiazine 1,1-dioxide]"
4,6.30 to 7.00,"CC(c1ccc2c(c1)CCCC2)c1c(F)ccc2c1NC(NCc1cccc(F)c1)=NS2(=O)=O (centres unmarked) [Compound 22-9, 6-fluoro-3-((3-fluorobenzyl)amino)-5-(1-(5,6,7,8-tetrahydronaphthalen-2-yl)ethyl)-4H-benzo[e][1,2,4]thiadiazine 1,1-dioxide]"
5,> 7.00,"O=S1(=O)N=C(NCc2ncccc2Cl)Nc2c(Cc3ccccc3Cl)cccc21 [Compound 12-3, 5-(2-chlorobenzyl)-3-(((3-chloropyridin-2-yl)methyl)amino)-4H-benzo[e][1,2,4]thiadiazine 1,1-dioxide]"
6,> 7.00,"CC(c1nccs1)c1c(F)ccc2c1NC(NCc1cccc(F)c1)=NS2(=O)=O (centres unmarked) [Compound 22-11, 6-fluoro-3-((3-fluorobenzyl)amino)-5-(1-(thiazol-2-yl)ethyl)-4H-benzo[e][1,2,4]thiadiazine 1,1-dioxide]"
7,> 7.00,"CC(c1c(F)ccc2c1NC(NCc1cccc(F)c1)=NS2(=O)=O)C1CCOCC1 (centres unmarked) [Compound 22-3, 6-fluoro-3-((3-fluorobenzyl)amino)-5-(1-(tetrahydro-2H-pyran-4-yl)ethyl)-4H-benzo[e][1,2,4]thiadiazine 1,1-dioxide]"
8,> 7.00,"CC(C)CC(C)c1c(F)ccc2c1NC(NCc1cccc(F)c1)=NS2(=O)=O (centres unmarked) [Compound 22-4, 6-fluoro-3-((3-fluorobenzyl)amino)-5-(4-methylpentan-2-yl)-4H-benzo[e][1,2,4]thiadiazine 1,1-dioxide]"
9,> 7.00,"O=S1(=O)N=C(NCc2ccccc2Cl)Nc2c(Cc3ccccc3Cl)cccc21 [Compound 12-1, 5-(2-chlorobenzyl)-3-((2-chlorobenzyl)amino)-4H-benzo[e][1,2,4]thiadiazine 1,1-dioxide]"
10,> 7.00,"Cc1cc(C(C)c2c(F)ccc3c2NC(NCc2cccc(F)c2)=NS3(=O)=O)ccn1 (centres unmarked) [Compound 22-21, 6-fluoro-3-((3-fluorobenzyl)amino)-5-(1-(2-methylpyridin-4-yl)ethyl)-4H-benzo[e][1,2,4]thiadiazine 1,1-dioxide]"
11,6.30 to 7.00,"CC(c1ccc2ccccc2c1)c1c(F)ccc2c1NC(NCc1cccc(F)c1)=NS2(=O)=O (centres unmarked) [Compound 22-8, 6-fluoro-3-((3-fluorobenzyl)amino)-5-(1-(naphthalen-2-yl)ethyl)-4H-benzo[e][1,2,4]thiadiazine 1,1-dioxide]"
12,> 7.00,"COc1cccc(C(C)c2c(F)ccc3c2NC(NCc2cccc(F)c2)=NS3(=O)=O)n1 (centres unmarked) [Compound 22-6, 6-fluoro-3-((3-fluorobenzyl)amino)-5-(1-(6-methoxypyridin-2-yl)ethyl)-4H-benzo[e][1,2,4]thiadiazine 1,1-dioxide]"
13,> 7.00,"CCC(c1ccccc1F)c1c(F)ccc2c1NC(NCc1ncccc1F)=NS2(=O)=O (centres unmarked) [Compound 20-1, 6-fluoro-5-(1-(2-fluorophenyl)propyl)-3-(((3-fluoropyridin-2-yl)methyl)amino)-4H-benzo[e][1,2,4]thiadiazine 1,1-dioxide]"
14,6.30 to 7.00,"CC(c1cccc(OC(F)(F)F)c1)c1c(F)ccc2c1NC(NCc1cccc(F)c1)=NS2(=O)=O (centres unmarked) [Compound 22-14, 6-fluoro-3-((3-fluorobenzyl)amino)-5-(1-(3-(trifluoromethoxy)phenyl)ethyl)-4H-benzo[e][1,2,4]thiadiazine 1,1-dioxide]"
15,> 7.00,"Cc1cccc(C(C)c2c(F)ccc3c2NC(NCc2cccc(F)c2)=NS3(=O)=O)c1 (centres unmarked) [Compound 22-12, 6-fluoro-3-((3-fluorobenzyl)amino)-5-(1-(m-tolyl)ethyl)-4H-benzo[e][1,2,4]thiadiazine 1,1-dioxide]"
16,> 7.00,"COc1cccc(Cc2cccc3c2NC(NCc2ccccc2F)=NS3(=O)=O)c1 [Compound 6-9, 3-((2-fluorobenzyl)amino)-5-(3-methoxybenzyl)-4H-benzo[e][1,2,4]thiadiazine 1,1-dioxide]"
17,> 7.00,"O=S1(=O)N=C(NCc2ccccc2F)Nc2c(Cc3ccc(F)cc3)cccc21 [Compound 6-14, 5-(4-fluorobenzyl)-3-((2-fluorobenzyl)amino)-4H-benzo[e][1,2,4]thiadiazine 1,1-dioxide]"
18,> 7.00,"COc1cc(F)ccc1CNC1=NS(=O)(=O)c2cccc(Cc3ccccc3Cl)c2N1 [Compound 12-9, 5-(2-chlorobenzyl)-3-((4-fluoro-2-methoxybenzyl)amino)-4H-benzo[e][1,2,4]thiadiazine 1,1-dioxide]"
